The NIST ThermoML archive (doi:10.1016/j.jct.2009.11.013)
± gives the expanded uncertainty stated by the source.

Experiments:
[1] = molar enthalpy of vaporization or sublimation; settings: 298.15 K; Liquid; Calvet microcalorimetry
[2] = Liquid; Calvet microcalorimetry

SMILES	molar enthalpy [1] [kcal/mol]	Normal boiling temperature [2] [°C]
O=C1C=CCS1 [2(5H)-thiophenone]	13.4 ± 0.574	103 ± 0.2
O=C1C=CCO1 [(5H)-furan-2-one]	13.3 ± 0.621	
